We go through 112 compounds from a melting point compilation (Tetko et al.).

A word on the melting point: it is the temperature, or range, at which the solid turns liquid.

Structures are written as SMILES.

The compound `CCOC(=O)CCC(N[P+]([O-])(OC)C(C)NC(=O)CCCCN1C(=O)c2ccccc2C1=O)C(=O)OCC` (configuration not stated) showed a melting point of 81 °C.
The same measure for `Cc1cc(N2CCNCC2)c2ccccc2n1`: 101 to 103 °C; for `Nc1cc(F)c(F)c(F)c1F`: 28 °C; for `Fc1cc(Br)ccc1I`: 48 °C.
The same measure for `CCCCCCCCCCCCCCCCO`: 51.1 °C; for `COc1c(OC)c(OC(C)=O)c2cc(C#N)ccc2c1OC(C)=O`: 124 °C.
The same measure for `C#CC=CC=C`: -81 °C; for `c1ccc(SCCSc2ccccc2)cc1`: 69 °C.
In turn, `COC(=O)Nc1nc2ccccc2[nH]1` had a melting point of 305 °C.
The same measure for `CCCCCCCCCCCCCCCCc1ccccc1`: 25 to 29 °C; for `O=[N+]([O-])OC(CO)CO`: 54 °C.
The same measure for `O=C(O)c1ccc(-c2cncnc2)cc1`: 316 to 317 °C.
The same measure for `CC(C)(C)NCC(O)COc1nsnc1N1CCOCC1` (configuration not stated): 202 °C; for `N#Cc1ccc(O)c([N+](=O)[O-])c1`: 143 to 148 °C; for `NCCOCCO`: -11 °C.
`NS(=O)(=O)c1ccc(C(F)(F)F)cc1` had a melting point of 180 °C.
The same measure for `O=C1C2=C(O)CCCC2Cc2ccccc21` (configuration not stated): 79 °C; for `CCOC(=O)c1nc(-c2cncc(Br)c2)no1`: 101 to 103 °C; for `N#CC1=C(N)Oc2c(c(C(F)(F)F)nn2-c2ccccc2)C1c1ccc(Cl)cc1` (configuration not stated): 221 °C.
The same measure for `CC(Oc1ccc(Cl)cc1Cl)C(=O)O` (configuration not stated): 122 °C.
The same measure for `Oc1ncnc2[nH]ncc12`: 350 °C.
For `O=[N+]([O-])c1ccc(-c2nc3n(c2[N+](=O)[O-])CCS3)cc1`, the melting point was 203 to 205 °C.
The same measure for `CCCCOC(=O)c1ccc([N+](=O)[O-])cc1`: 35.5 °C; for `Cc1nc(-c2cccc(C=O)c2)cs1`: 76 to 80 °C.
`CC(C)(C)c1ccc2c(c1)C(=O)c1ccccc1C2=O` gave a melting point of 99 °C.
The same measure for `N#CC(C#N)=Nc1ccccc1`: 86 to 87 °C.
`Oc1cccc(N2CCNCC2)c1` had a melting point of 207 °C.
`O=C(O)c1cccnc1Sc1ccccc1` had a melting point of 165 to 167 °C.
The same measure for `CC[N+](CC)(CC)S(=O)(=O)[N-]C(=O)OC`: 77 °C; for `CCCSCC`: -117 °C; for `CC1=Nc2ccccc2Nc2c1c(=O)n(-c1ccccc1)c1ccccc21`: 297 to 299 °C.
The compound `C=C1C(=O)C23C4CC5C(C)(C)CCCC56COC(CC1C2OC(C)(C)O4)C63` (configuration not stated) came in with a melting point of 163 °C.
The same measure for `COC(=O)Cc1ccc(OCc2ccccc2)cc1`: 53 to 58 °C; for `CC1=NNC(=O)C1=NNc1ccccc1C(=O)O`: 239 °C; for `OCC1NC(CO)C(O)C1O` (configuration not stated): 102 °C.
The same measure for `Clc1cc2c(oc3c(Cl)c(Cl)c(Cl)c(Cl)c32)c(Cl)c1Cl`: 233 °C.
The same measure for `Nc1cccc(Br)n1`: 90 °C.
For the compound `CCCCCCCCCC(=O)CCC`, the melting point was found to be 19 °C.
The same measure for `NC(=O)CN1Cc2ccccc2OC1=O`: 203 °C; for `Cc1ccc(NN=c2c(C)nc3ccccc3[nH]c2=O)cc1`: 179 °C.
The same measure for `Cc1ccc(Sc2ncccc2C(=O)Cl)cc1`: 102 to 104 °C; for `Clc1ccc(C(Cn2ccnc2)OCc2csc3c(Cl)cccc23)c(Cl)c1` (configuration not stated): 146 °C; for `NC(=S)c1cccs1`: 108 °C.
Consider `Cc1ccc(N)c(Cl)n1`, for which the melting point was in the range of 88 to 91 °C.
The same measure for `CSc1nc(N)c(C(=O)c2ccc(Cl)cc2)s1`: 148 to 150 °C; for `COc1ccc(NC(=O)C=CC(=O)O)cc1`: 190 to 193 °C.
The same measure for `CCOc1cccc2ccccc12`: 5.5 °C; for `Cc1cc(C)c(S(=O)(=O)n2cnc([N+](=O)[O-])n2)c(C)c1`: 132 to 134 °C.
The same measure for `CCOC(=O)C12CCC(C(=O)OCC)(CC1=O)C(=O)C2`: 111 to 113 °C; for `CCCC(CCC)C(N)=O`: 125 °C; for `O=C1Cc2cccc(Br)c21`: 81.5 to 83 °C.
The compound `O=C(Oc1c(F)c(F)c(F)c(F)c1F)c1ccc(-c2cnco2)cc1` showed a melting point of 141 to 143 °C.
The same measure for `CCN1CC2(COC)C(O)CC(OC)C34C5CC6(O)C(O)C5C(O)(C(O)C6OC)C(C(OC)C23)C14` (configuration not stated): 132 °C.
The same measure for `NC(=O)CF`: 108 °C; for `CC(C)(C)OC(=O)NC(Cc1cccc(F)c1)C(=O)O` (configuration not stated): 78 °C.
The same measure for `Cc1ccsc1C=CC1=NCCCN1C`: 240 °C; for `O=[N+]([O-])c1ccc(NCc2ccccc2)c2nonc12`: 206 to 209 °C.
The compound `CC(=NO)C(=O)c1ccccc1` registered a melting point of 114 °C.
The same measure for `O=C1OC(c2ccccc2)=NC1=Cc1ccccc1F`: 148 to 149 °C; for `CC(=O)c1c(C)n(O)c2ccc3nonc3c12`: 301 to 303 °C.
The same measure for `CCOC(=O)c1c(C)oc2c(F)c(F)c(F)c(F)c12`: 70 °C; for `O=C(CNc1cccc(NCC(=O)c2ccccc2)c1)c1ccccc1`: 164 °C.
The same measure for `CC(C)S(=O)(=O)c1cnc(-c2ccccn2)nc1N`: 147 to 150 °C; for `Cc1c(F)cccc1CC#N`: 47 °C.
The compound `CN1CCC23c4c5ccc(O)c4OC2C(=O)CCC3(O)C1C5` (configuration not stated) came in with a melting point of 248 °C.
The same measure for `Cc1cc(=O)n2nc(C(F)(F)F)nc2[nH]1`: 214 °C; for `COc1cc(F)ccc1C(=O)O`: 134 to 136 °C; for `COC(=O)c1ccc(I)c(C)c1`: 61 °C.
In turn, `COc1ccccc1N/N=C(\C(N)=O)c1nc2ccccc2s1` registered a melting point of 212 °C.
The same measure for `O=[N+]([O-])c1ccc(N=Nc2ccc(O)c3ccccc23)cc1`: 275 °C; for `COc1ccc(N)cc1C(F)(F)F`: 59 °C.
The same measure for `CC(C)C[C@H](NC(=O)OCC1c2ccccc2-c2ccccc21)C(=O)O`: 153 to 157 °C; for `COc1ccc(OC)c(C#N)c1`: 82 °C.
The same measure for `COc1cc2c(c3oc(=O)c4c(c13)CCOC4=O)C1CCOC1O2` (configuration not stated): 237 to 240 °C; for `CCc1c[nH]c(=O)[nH]c1=O`: 309 °C.
Consider `O=Cc1cc([N+](=O)[O-])ccc1N1CCCC1`, for which the melting point lay in the range of 136 to 138 °C.
The same measure for `O=C(O)CCCCCCCCCCCCCCCCCCCCC(=O)O`: 125 to 127 °C.
The same measure for `Cc1ccc(C(=O)O)cc1I`: 208 °C; for `CC(C)(O)C(N)C(=O)O` (racemic): 200 to 202 °C; for `O=C(O)c1cc2cc(Br)ccc2s1`: 233 to 234 °C.
The same measure for `Cn1[nH]c([N+](=O)[O-])c2c(=O)ccnc1-2`: 223 °C.
As to `Clc1cc(Cl)c(OCC#CI)cc1Cl`, the melting point is 114 °C.
The same measure for `CC(=O)Oc1c(-c2ccccc2)[nH]c2cc3c(cc12)C(=O)C(c1ccccc1)=[N+]3[O-]`: 246 °C; for `CCc1cccc(CC)c1NC(=O)CN(CC(=O)O)CC(=O)O`: 187 to 190 °C; for `O=CC[C@@H](O)[C@H](O)CO`: 91 °C.
The same measure for `NNC(=O)C(O)(c1ccccc1)c1ccccc1`: 168 to 169 °C; for `N#Cc1c(N)sc2c1CCCC2`: 142 °C; for `CN(C)C(=O)[C@@H]1OC(C)(C)O[C@H]1C(=O)N(C)C`: 88 to 91 °C.
The same measure for `O=Cc1ccc(-c2ccc([N+](=O)[O-])cc2)o1`: 204 to 208 °C.
With `CC(=O)C(C)O` (configuration not stated), the melting point worked out at 15 °C.
The same measure for `Cc1cc([N+](=O)[O-])cc(C)c1O`: 164 to 169 °C; for `C[Si](C)(C)C#CC#C[Si](C)(C)C`: 112 °C.
The same measure for `Oc1c(Br)cc(Br)cc1-c1cc(Br)cc(Br)c1O`: 205 °C; for `CC(C)(C)OC(=O)N1c2ccccc2CC1C(=O)O` (configuration not stated): 121 to 122 °C.
The same measure for `Clc1nc(Cl)c(Cl)c(Cl)n1`: 69 °C; for `CN(C)c1nnc(Br)c(-c2nc(N(C)C)nnc2Br)n1`: 123 °C; for `O=Cc1c[nH]c2c(C(=O)O)cccc12`: 308 to 309 °C.
Turning to `O=C(O)c1cc2ccccc2c2ccccc12`, the melting point was determined as 253 °C.
`O=Cc1csc2ccccc12`: the melting point was 56 to 58 °C.
The same measure for `CN1C(=O)C(O)N=C(c2ccccc2Cl)c2cc(Cl)ccc21` (configuration not stated): 206 °C.
The same measure for `COc1ccccc1C=C(C(=O)O)c1ccccc1`: 158 °C; for `CCC1(CCC(C)C)C(=O)NC(=O)NC1=O`: 156 °C.
`CC(=O)OCOC(=O)C1N2C(=O)C(NC(=O)Cc3ccccc3)C2SC1(C)C` (configuration not stated) yielded a melting point of 107 °C.
The same measure for `COc1cc2c(cc1O)[C@H](C)N(C)CC2`: 182 °C; for `CCCNC(=O)C(C(F)(F)F)C(F)(F)F`: 105 to 107 °C.
The same measure for `N#Cc1ccc(NC(N)=S)cc1`: 209 to 210 °C; for `CC1(c2ccc([N+](=O)[O-])cc2)Nn2c(nnc2C(F)(F)F)S1` (configuration not stated): 255 °C; for `Oc1ccc(C2CCCCC2)cc1`: 133 °C.
The same measure for `Sc1nnc2ccccn12`: 213 to 214 °C; for `C/C(OCCc1ccc([N+](=O)[O-])cc1)=C(\C#N)c1ccccc1`: 138 °C; for `CC(C)(C)NC(=O)C1CCC2C3CCC4NC(=O)C=CC4(C)C3CCC12C` (configuration not stated): 253 °C.
`Cc1ccc(N)c(C)c1` had a melting point of 16 °C.
